Reference: paper PMC5923396 (Marine Drugs, 2018)
Read-outs that look alike come from different tables or passages of the source.

Key:
murine muscle nAChR = molecular target: T1, murine muscle nAChR (Mus musculus, UniProt P02716+P04756+P20782); assay: Two-electrode voltage clamp, acetylcholine-evoked current in Xenopus oocytes; assay type: cell-based; conditions: for inhibition at 2.5 µM: holding potential −70 mV, read-out: inhibition extent, peak current amplitude
T1 construct: expressed in transfected cells; host or cells: Xenopus oocytes injected with plasmid DNA (pRBG4 vector)

[1] = molecular target: T2, Torpedo californica muscle-type nAChR (Tetronarce californica, UniProt P02710+P02714+P02718); assay: Intrinsic tryptophan fluorescence quenching; assay type: binding; conditions: 2 μM MG; λex 280 nm, λem 340 nm; prevented by α-Bgt pre-incubation
T2 construct: from tissue; host or cells: Torpedo californica electric organ membranes
Procedure: Intrinsic tryptophane fluorescence detection. Electric organ membranes of Torpedo californica at the final concentration of 1 nM of toxin-binding sites in a 20 mM Tris-HCl buffer were mixed with Makaluvamine G (final concentration 2 μM) and the control membranes were pre-incubated with 1 μM αBgt for 30 min. Measurements were done on a Cary Eclipse (Agilent, Santa Clara, CA, USA) spectrofluorimeter with a standard kinetics software (version 1.2) with excitation wavelength 280 nm and emission wavelength 340 nm (both with 5 nm slits). The data were exported to csv files and analyzed in the LibreOffice 6.0 Calc software (The Document Foundation, Berlin, Germany).

[2] = molecular target: T3, wild-type (WT) muscle nAChR (Mus musculus, UniProt P02716+P04756+P20782); assay: Fluorescent detection of cytoplasmic Ca2+ rise in transfected Neuro2a cells (Case12); assay type: cell-based; conditions: 2.5 μM MG, Ca2+ fluorescence
T3 construct: expressed in transfected cells; host or cells: mouse neuroblastoma Neuro2a cells, transient co-transfection with the Case12 calcium sensor

rat α4β2 nAChR = molecular target: T4, rat α4β2 nAChR (Rattus norvegicus, UniProt P09483+P12390); assay: Two-electrode voltage clamp, ACh-evoked currents in Xenopus oocytes; assay type: cell-based
T4 construct: expressed in transfected cells; host or cells: Xenopus oocytes injected with plasmid DNA (pcDNA 3.1 vector)

α4β2 nAChR = α4β2 nAChR (Rattus norvegicus, UniProt P09483+P12390); assay type: binding; conditions: test ligand concentrations up to 1 mM
α1β3γ2 GABAAR [3] = molecular target: T5, α1β3γ2 GABAAR (Mus musculus, UniProt P62812+P63080); assay: Two-electrode voltage clamp, GABA-evoked currents in Xenopus oocytes; assay type: cell-based, murine; conditions: 25 μM MG; surmountable by higher GABA concentrations
mice [4] = assay: In vivo toxicity in mice (literature); conditions: corresponds to 210 mg/kg
topoisomerase I = molecular target: topoisomerase I; set-up: method as in doi:10.1016/S0040-4020(01)96256-8; conditions: read-out: IC50 topoisomerase I inhibiting; cited from earlier work
different types of cells = test system: different types of cells; set-up: method as in doi:10.1016/S0040-4020(01)96256-8; conditions: cited from earlier work
mice [5] = test system: mice; set-up: method as in doi:10.1016/S0040-4020(01)96256-8; conditions: cited from earlier work
human α7 nAChR = test system: human α7 nAChR; set-up: method as in PMID 24686559; conditions: cited from earlier work
homopentameric α1 GlyR = test system: homopentameric α1 GlyR; set-up: method as in PMID 24686559; conditions: cited from earlier work
α1β3γ2 GABAAR [6] = molecular target: T5, α1β3γ2 GABAAR; assay: Fluorescent α-Ctx competition assay on Neuro2a cells; assay type: binding, murine; set-up: expressed in transfected cells; host or cells: mouse neuroblastoma Neuro2a cells, transient transfection; conditions: 50 μM MG
[7] = set-up: method as in earlier work; conditions: cited from earlier work
GABAAR = conditions: cited from earlier work

Row | Molecule | inhibition at 2.5 µM (murine muscle nAChR; 2.5 μM MG co-applied with 10 μM acetylcholine) | inhibition at 2.5 µM (murine muscle nAChR; 2.5 μM MG co-applied with 1000 μM acetylcholine) | dependence of inhibition on membrane potential (open-channel block) (murine muscle nAChR; 2.5 μM MG, 30 μM acetylcholine, −30 to −100 mV, current amplitude and net charge) | intrinsic Trp fluorescence quenching [1] | effect on WT receptor dose response to acetylcholine [2] | inhibition of ACh-evoked currents (rat α4β2 nAChR; high micromolar range (25 μM MG, 50 μM acetylcholine)) | time to recovery of normal current amplitude after washout (rat α4β2 nAChR; reversibility of inhibition, data not shown) | inhibition of [3H]-epibatidine binding (α4β2 nAChR) | inhibition of GABA-evoked currents (α1β3γ2 GABAAR [3]) | dose not toxic to mice, molar (mice [4]) | IC50 (topoisomerase I) | concentrations showing cytotoxicity (different types of cells) | dose not toxic to mice (mice [5]) | potency at muscle nAChR relative to human α7 nAChR (human α7 nAChR) | inhibition of α1 GlyR (homopentameric α1 GlyR) | inhibition of fluorescent α-Ctx binding (α1β3γ2 GABAAR [6]) | LD50 [7] | affinity at GABAAR (GABAAR)
1 | Cn1cc2c3c1C(=O)C(N/C=C/c1ccc(O)cc1)=CC3=[N+](C)CC2 [MG, Makaluvamine G] | 27% | 81% | No increase in the inhibition | induces a drop of intrinsic tryptophan fluorescence | does not affect | only weak inhibition | 15 to 20 min | partial | inhibits | 629 µmol/kg | ~3000 nM | 1000 to 70000 nM | up to 210 mg/kg | at least one order of magnitude more potent | does not inhibit | Only partial inhibition |  | 
2 | COc1cc2c3cc1Oc1cc(ccc1O)C[C@@H]1c4c(cc(OC)c(O)c4Oc4ccc(cc4)C[C@@H]3N(C)CC2)CC[N+]1(C)C [d-tubocurarine] |  |  |  |  |  |  |  |  |  |  |  |  |  |  |  |  | less than 0.7 μmole/kg | sub-micromolar
3 | α-cobratoxin |  |  |  |  |  |  |  |  |  |  |  |  |  |  |  |  |  | sub-micromolar
